From patent EP4810508A1, “ARABINOSE DERIVATIVE COMPOUND, AND COMPOSITION COMPRISING SAME FOR PREVENTING OR TREATING DEGENERATIVE BRAIN DISEASES” (Digmbio. Inc., priority 2023, dated 2025)
Where two headings read alike, the source gives them in different places.

System: HRE/Luc/HEK293 cells
Test: HRE (Hypoxia Response Element) luciferase assay
Assay type: cell-based, human
Details: for fold induction at 10 µM / fold induction at 100 µM: Homo sapiens; for HRE expression: low concentration of 1 µM
Description: • (a) HRE assay: Confirmation of increased in HRE expression levels by the test substance relative to the vehicle in HRE/Luc/HEK293 cells • * Less than a twofold increase at 100 µM, • ** More than a twofold increase at 100 µM, • *** More than a twofold increase at 10 µM, • **** More than a twofold increase at 1 µM, • Not performed.
It has been reported that in the brains of AD patients, blood supply is mostly insufficient, resulting in oxygen levels being up to 50% lower than those of normal individuals, leading to increased oxidative stress (ROS) and neuroinflammation. It has also been studied that when the HIF-1α (hypoxia inducible factor-1) factor binds to the HRE (hypoxia response element), it increases VEGF (vascular endothelial growth factor), which promotes the formation of new blood vessels, thereby increasing oxygen levels in the brain and helping to inhibit nerve cell damage.
A reporter gene containing luciferase, capable of verifying the level of HRE expression, was inserted into HEK-293 human embryonic kidney cells, and HRE/Luc/HEK293 cells were constructed by inserting a plasmid (HRE/Luc) with luciferase attached downstream of the HRE promoter that binds to HIF-1α using lipofectamine (Invitrogen).
To perform HRE luciferase analysis, HRE/Luc/HEK293 cells were seeded in 96-well culture plates at a cell density of 4 x 10^4 per well in minimal essential medium (MEM) containing 10% fetal bovine serum. After one day, the cell medium was removed and replaced with medium mixed with various concentrations of example compounds. Six hours after compound pretreatment, HRE/Luc/HEK293 cells were cultured under hypoxic conditions (O2 0.1%) for 18 hours. Subsequently, the cells were washed with phosphate buffer, lysed with lysis buffer, and then the luciferase reagent (Promega) for luciferase analysis was added. Afterward, changes in HRE expression levels associated with HIF-1 signaling were evaluated by measuring luminescence using an Infinite200 (Tecan).

[1] = HEK293, 18 h, Table 2 (Examples 37-74, 52), read-out: HKt-increasing 10uM
[2] = HEK293, 18 h, Table 2 (Examples 37-74, 52), read-out: HKt-increasing 100uM
[3] = HEK293, 18 h, Table 2 (Examples 75-109, 114), read-out: HRE-inceasing 10uM
[4] = HEK293, 18 h, Table 2 (Examples 75-109, 114), read-out: HRE-inceasing 100uM
[5] = HEK293, fold increase of HRE expression, hypoxic conditions (O2 0.1%) 18 hours, Table 2, read-out: HRE-increasing 10uM
[6] = HEK293, fold increase of HRE expression, hypoxic conditions (O2 0.1%) 18 hours, Table 2, read-out: HRE-increasing 100uM

Compound: COc1ccc(Cc2ccc(O[C@H]3OC[C@H](O)[C@H](O)[C@H]3O)cc2)c(Cl)c1 [Example 49, (2R,3R,4S,5S)-2-(4-(2-chloro-4-methoxybenzyl)phenoxy)tetrahydro-2H-pyran-3,4,5-triol]
- fold induction at 10 µM [1]: 1
- fold induction at 100 µM [2]: 1.1

Compound: CC(C)c1ccc(Oc2ccc(O[C@H]3OC[C@H](O)[C@H](O)[C@H]3O)c(F)c2)cc1 [Example 68, (2R,3R,4S,5S)-2-(2-fluoro-4-(4-isopropylphenoxy)phenoxy)tetrahydro-2H-pyran-3,4,5-triol]
- fold induction at 10 µM [1]: 4.3
- fold induction at 100 µM [2]: 4.4
- HRE expression: more than threefold

Compound: CC(C)c1ccc(Oc2ccc(O[C@H]3OC[C@@H](O)[C@H](O)[C@H]3O)c(F)c2)cc1 [Example 101, (2R,3R,4S,5R)-2-(2-fluoro-4-(4-isopropylphenoxy)phenoxy)tetrahydro-2H-pyran-3,4,5-triol]
- fold induction at 10 µM [3]: 3.7
- fold induction at 100 µM [4]: 2.5

Compound: Cc1ccc2oc(-c3ccc(O[C@@H]4OC[C@H](O)[C@H](O)[C@H]4O)c(F)c3)nc2c1 [Example 104, (2S,3R,4S,5S)-2-(2-fluoro-4-(5-methylbenzo[d]oxazol-2-yl)phenoxy)tetrahydro-2H-pyran-3,4,5-triol]
- fold induction at 10 µM [3]: 3.6
- fold induction at 100 µM [4]: 2
- HRE expression: more than threefold

Compound: CCOc1ccc(Cc2ccc(O[C@H]3OC[C@H](O)[C@H](O)[C@H]3O)cc2)cc1 [Example 39, (2R,3R,4S,5S)-2-(4-(4-ethoxybenzyl)phenoxy) tetrahydro-2H-pyran-3,4,5-triol]
- fold induction at 10 µM [1]: 1.1
- fold induction at 100 µM [2]: 1.3

Compound: CC(C)c1ccc(Oc2ccc(O[C@H]3OC[C@H](O)[C@H](O)[C@H]3N)cc2)cc1 [Example 70, (3S,4R,5R,6R)-5-amino-6-(4-(4-isopropylphenoxy)phenoxy)tetrahydro-2H-pyran-3,4-diol]
- fold induction at 10 µM [1]: 1.2
- fold induction at 100 µM [2]: 3.1

Compound: CO[C@@H]1[C@@H](O)[C@@H](Oc2ccc(Oc3ccc(C(C)C)cc3)cc2)OC[C@@H]1O [Example 60, (2R,3R,4S,5S)-2-(4-(4-isopropylphenoxy)phenoxy)-4-methoxytetrahydro-2H-pyran-3,5-diol]
- fold induction at 10 µM [1]: 2.3
- fold induction at 100 µM [2]: 1.6

Compound: CC(C)c1ccc(-c2ccc(Cc3ccc(O[C@H]4OC[C@H](O)[C@H](O)[C@H]4O)cc3)cc2)cc1 [Example 52, (2R,3R,4S,5S)-2-(4-((4'-isopropyl-[1,1'-biphenyl]-4-yl)methyl)phenoxy)tetrahydro-2H-pyran-3,4,5-triol]
- fold induction at 10 µM [1]: 2
- fold induction at 100 µM [2]: 3.6

Compound: O[C@@H]1[C@@H](O)[C@@H](Oc2ccc(Cc3ccc4ccccc4c3)cc2)OC[C@@H]1O [Example 19, (2R,3R,4S,5S)-2-(4-(naphthalen-2-ylmethyl)phenoxy) tetrahydro-2H-pyran-3,4,5-triol]
- fold induction at 10 µM [5]: 1.3
- fold induction at 100 µM [6]: 1.8

Compound: CC(C)c1ccc(Oc2ccc(O[C@H]3OC[C@@H](F)[C@H](O)[C@H]3O)cc2)cc1 [Example 64, (2R,3R,4R,5R)-5-fluoro-2-(4-(4-isopropylphenoxy)phenoxy)tetrahydro-2H-pyran-3,4-diol]
- fold induction at 10 µM [1]: 2.4
- fold induction at 100 µM [2]: 2.3

Compound: CC(C)c1ccc(Oc2ccc(O[C@H]3OC[C@H](O)[C@H](O)[C@@H]3F)cc2)cc1 [Example 65, (3S,4S,5S,6R)-5-fluoro-6-(4-(4-isopropylphenoxy)phenoxy)tetrahydro-2H-pyran-3,4-diol]
- fold induction at 10 µM [1]: 2.6
- fold induction at 100 µM [2]: 2.4

Compound: CC(C)c1ccc(Cc2ccc(O[C@H]3OC[C@@H](O)[C@H](O)[C@H]3O)cc2)cc1 [Example 43, (2R,3R,4S,5R)-2-(4-(4-isopropylbenzyl)phenoxy)tetrahydro-2H-pyran-3,4,5-triol]
- fold induction at 10 µM [1]: 3.3
- fold induction at 100 µM [2]: 2.5
- HRE expression: more than threefold

Compound: CC(C)c1ccc(Oc2ccc(O[C@H]3OC[C@H](O)[C@H](O)[C@H]3O)c(Cl)c2)cc1 [Example 57, (2R,3R,4S,5S)-2-(2-chloro-4-(4-isopropylphenoxy)phenoxy)tetrahydro-2H-pyran-3,4,5-triol]
- fold induction at 10 µM [1]: 3.2
- fold induction at 100 µM [2]: 2.8
- HRE expression: more than threefold

Compound: CC(C)c1ccc(-c2ccc(O[C@@H]3OC[C@H](O)[C@H](O)[C@H]3O)cc2)cc1 [Example 87, (2S,3R,4S,5S)-2-((4'-isopropyl-[1,1'-biphenyl]-4-yl)oxy)tetrahydro-2H-pyran-3,4,5-triol]
- fold induction at 10 µM [3]: 2.4
- fold induction at 100 µM [4]: 3.1

Compound: COc1ccc(Cc2ccc(O[C@H]3OC[C@H](O)[C@H](O)[C@H]3O)c(F)c2)cc1 [Example 46, (2R,3R,4S,5S)-2-(2-fluoro-4-(4-methoxybenzyl)phenoxy)tetrahydro-2H-pyran-3,4,5-triol]
- fold induction at 10 µM [1]: 1.1
- fold induction at 100 µM [2]: 1.8

Compound: COc1ccc(C(=O)c2ccc(O[C@H]3OC[C@H](O)[C@H](O)[C@H]3O)cc2)cc1 [Example 71, (4-methoxyphenyl)(4-(((2R,3R,4S,5S)-3,4,5-trihydroxytetrahydro-2H-pyran-2-yl)oxy)phenyl)methanone]
- fold induction at 10 µM [1]: 1.3
- fold induction at 100 µM [2]: 2

Compound: COc1ccc(Cc2ccc(O[C@H]3OC[C@H](O)[C@H](O)[C@H]3O)cc2)cc1OC [Example 17, (2R,3R,4S,5S)-2-(4-(3,4-dimethoxybenzyl)phenoxy)tetrahydro-2H-pyran-3,4-triol]
- fold induction at 10 µM [5]: 1.2
- fold induction at 100 µM [6]: 1.5

Compound: COc1ccc(Cc2ccc(O[C@H]3OC[C@H](O)[C@H](O)[C@H]3N)cc2)cc1 [Example 78]
- fold induction at 10 µM [3]: 12
- fold induction at 100 µM [4]: 2.4

Compound: O[C@@H]1[C@@H](O)[C@@H](Oc2ccc(CC3CCCC3)cc2)OC[C@@H]1O [Example 21, (2R,3R,4S,5S)-2-(4-(cyclopentylmethyl)phenoxy)tetrahydro-2H-pyran-3,4,5-triol]
- fold induction at 10 µM [5]: 2.3
- fold induction at 100 µM [6]: 2.4

Compound: CC(C)c1ccc(Oc2ccc(O[C@H]3OC[C@H](O)[C@H](O)[C@H]3F)cc2)cc1 [Example 63, (3S,4S,5R,6R)-5-fluoro-6-(4-(4-isopropylphenoxy)phenoxy)tetrahydro-2H-pyran-3,4-diol]
- fold induction at 10 µM [1]: 2.4
- fold induction at 100 µM [2]: 2.3

Compound: Cc1ccc2oc(-c3ccc(O[C@H]4OC[C@H](O)[C@H](O)[C@H]4O)c(F)c3)nc2c1 [Example 105, (2R,3R,4S,5S)-2-(2-fluoro-4-(5-methylbenzo[d]oxazol-2-yl)phenoxy)tetrahydro-2H-pyran 3,4,5-triol]
- fold induction at 10 µM [3]: 2.5
- fold induction at 100 µM [4]: 3.7

Compound: CC(C)[C@H]1CC[C@H](Cc2ccc(O[C@H]3OC[C@H](O)[C@H](O)[C@H]3O)cc2)CC1 [Example 74, (2R,3R,4S,5S)-2-(4-(((1R,4R)-4-isopropylcyclohexyl)methyl)phenoxy)tetrahydro-2H-pyran-3,4,5-triol]
- fold induction at 10 µM [1]: 1.9
- fold induction at 100 µM [2]: 3

Compound: COc1ccc2oc(-c3ccc(O[C@@H]4OC[C@H](O)[C@H](O)[C@H]4O)c(Cl)c3)nc2c1 [Example 102, (2S,3R,4S,5S)-2-(2-chloro-4-(5-methoxybenzo[d]oxazol-2-yl)phenoxy)tetrahydro-2H-pyran-3,4,5-triol]
- fold induction at 10 µM [3]: 3.1
- fold induction at 100 µM [4]: 1.8
- HRE expression: more than threefold

Compound: O=C(c1ccc(O[C@H]2OC[C@H](O)[C@H](O)[C@H]2O)cc1)c1ccco1 [Example 115, furan-2-yl(4-(((2R,3R,4S,5S)-3,4,5-trihydroxytetrahydro-2H-pyran-2-yl)oxy)phenyl)methanone]
- fold induction at 10 µM [5]: 1
- fold induction at 100 µM [6]: 1.4

Compound: COc1ccc2oc(-c3ccc(O[C@H]4OC[C@@H](O)[C@H](O)[C@H]4O)cc3)nc2c1 [Example 93, (2R,3R,4S,5R)-2-(4-(5-methoxybenzo[d]oxazol-2-yl)phenoxy)tetrahydro-2H-pyran-3,4,5-triol]
- fold induction at 10 µM [3]: 2.8
- fold induction at 100 µM [4]: 2.3

Compound: COc1ccc(Cc2ccc(O[C@H]3OC[C@H](O)[C@H](O)[C@H]3O)cc2Cl)cc1 [Example 38, (2R,3R,4S,5S)-2-(3-chloro-4-(4-methoxybenzyl)phenoxy)tetrahydro-2H-pyran-3,4,5-triol]
- fold induction at 10 µM [1]: 1.3
- fold induction at 100 µM [2]: 2.2

Compound: O[C@@H]1[C@@H](O)[C@@H](Oc2ccc(Cc3cc(C(F)(F)F)cc(C(F)(F)F)c3)cc2)OC[C@@H]1O [Example 16, (2R,3R,4S,5S)-2-(4-(3,5-bis(trifluoromethyl)benzyl)phenoxy) tetrahydro-2H-pyran-3,4,5-triol]
- fold induction at 10 µM [5]: 1
- fold induction at 100 µM [6]: < 1
